In patent publication US10323063B2, “Advanced macromolecule transduction domain (aMTD) sequences for improvement of cell-permeability, polynucleotides encoding the same, method to identify the unique features of aMTDs comprising the same, method to develop the aMTD sequences comprising the same” (CELLIVERY THERAPEUTICS, INC., priority 2014, dated 2019):

System: RAW 264.7 cells
Assay: Quantitative cell-permeability of FITC-labeled aMTD- or rPeptide-fused CRA recombinant proteins by flow cytometry
Assay type: cell-based
Source text: The aMTDs and rPeptides were fluorescently labeled and compared based on the critical factors for cell-permeability by using flow cytometry and confocal laser scanning microscopy (FIG. 5 to 8). The cellular uptake of the peptide-fused non-functional cargo recombinant proteins could quantitatively be evaluated in flow cytometry, while confocal laser scanning microscopy allows intracellular uptake to be assessed visually. The analysis included recombinant proteins fused to a negative control [rP38] that has opposite characteristics (hydrophilic and aromatic sequence: YYNQSTCGGQCY) to the aMTDs (hydrophobic and aliphatic sequences). Relative cell-permeability (relative fold) of aMTDs to the negative control was also analyzed (TABLE 39 and FIG. 9).
Geometric means of negative control (histidine-tagged rP38-fused CRA recombinant protein) subtracted by that of naked protein (histidine-tagged CRA protein) lacking any peptide (rP38 or aMTD) was standardized as relative fold of 1.
For quantitative cell-permeability, the aMTD- or rPeptide-fused recombinant proteins were conjugated to fluorescein isothiocyanate (FITC) according to the manufacturer's instructions (Sigma-Aldrich, St. Louis, Mo.). RAW 264.7 cells were treated with 10 μM FITC-labeled recombinant proteins for 1 hour at 37° C., washed three times with cold PBS, treated with 0.25% tripsin/EDTA (Sigma-Aldrich, St. Louis, Mo.) for 20 minutes at 37° C. to remove cell-surface bound proteins. Cell-permeability of these recombinant proteins were analyzed by flow cytometry (Guava, Millipore, Darmstadt, Germany) using the FlowJo cytometric analysis software (FIG. 5 to 6). The relative cell-permeability of aMTDs were measured and compared with the negative control (rP38) and reference hydrophobic CPPs (MTM12 and MTD85) (TABLE 47).

[1] = cell-permeability of aMTD-fused CRA recombinant protein relative to negative control (A: rP38)

Substance | Relative Ratio (Fold) A (cell-permeability of aMTD-fused CRA recombinant protein relative to negative control rP38 (A type)) | Relative Ratio (Fold) C (cell-permeability relative to reference CPP MTD85 (C type)) | Relative Ratio (Fold) B (cell-permeability relative to reference CPP MTM12 (B type)) | Relative Ratio (Fold) A [1] | Relative Ratio (Fold) B (cell-permeability of aMTD-fused CRA recombinant protein relative to reference CPP (B: MTM12)) | Relative Ratio (Fold) C (cell-permeability of aMTD-fused CRA recombinant protein relative to reference CPP (C: MTD85))
879 (AAIVLLPAVVVP; Advanced Macromolecule Transduction Domain (aMTD) Sequences for Improvement of Cell-Permeability) [compound 879] | 7.2 Fold | 2.4 Fold | 4.8 Fold |  |  | 
908 (VALALAPVVVAP; Advanced Macromolecule Transduction Domain (aMTD) Sequences for Improvement of Cell-Permeability) [compound 908] |  |  |  | 150.6 Fold | 100.8 Fold | 50.9 Fold
910 (VAALLPAVVVAP; Advanced Macromolecule Transduction Domain (aMTD) Sequences for Improvement of Cell-Permeability) [compound 910] |  |  |  | 148.5 Fold |  | 
